Assay results published in PMC12977544, “Phenotypic high-throughput screening identifies modulators of gut microbial choline metabolism” (mBio, 2026).
In brackets after ≈: the same amount, converted by molar mass.

Experiments:
[1] = test system: Clostridium sporogenes ATCC 15579; assay: TMA inhibition in bacterial whole cells (LC–MS/MS of d9-TMA from d9-choline); type: cell-based; details: 1 mM d9-choline in PBS, 75 min, 37°C, anaerobic
Description: (§1) For TMA inhibition assays, E. coli and P. mirabilis were grown in NCE medium supplemented with 20 mM choline chloride, A. hydrogenalis was grown in MEGA medium supplemented with 3 mM choline chloride, and C. sporogenes was grown in BHI medium supplemented with 20 mM of choline chloride to induce expression of the cut gene cluster. For MIC assays, all bacteria strains were grown in MEGA medium.
(§2) Compounds were stored as 10 mM DMSO stocks at –20°C and diluted in DMSO to prepare varying concentrations of inhibitors for testing. Bacteria were grown anaerobically overnight in media supplemented with choline as described above. Cells were pelleted and resuspended in PBS, and d9-choline chloride was added to a final concentration of 1 mM. The final OD600 of the PBS cell resuspensions is as follows: 0.4 (E. coli), 0.15–0.2 (P. mirabilis), 0.2 (C. sporogenes), and 0.4 (A. hydrogenalis). The resuspended cells were added to 96-well plates containing inhibitors (final concentration of 1% DMSO, with final inhibitor concentrations ranging between 0 and 325 µM). The plates were sealed and incubated for 75 min (or 90 min for P. mirabilis) at 37°C. Following incubation, the plates were removed from the anaerobic chamber and analyzed immediately or kept at –20°C until LC–MS/MS analysis. Each inhibitor concentration was tested in triplicate. EC50 values were calculated with GraphPad Prism by fitting the log(inhibitor) vs response—Variable slope (four-parameter) model for non-linear regression.
(§3) Samples were kept frozen until analysis and kept cold on ice during handling due to the volatility of TMA. Bacterial cell resuspensions in PBS were diluted 100-fold in LCMS-grade acetonitrile with 0.1% formic acid to lyse cells, precipitate proteins, and extract metabolites. Samples were centrifuged at 4,000 rpm for 10 min at 4°C to pellet proteins. The supernatants were then further diluted 20-fold in LCMS-grade acetonitrile with 0.1% formic acid, and the resulting solution was analyzed by LC–MS/MS.
(§4) LC–MS/MS analysis was performed on an Agilent 1290/6470 Triple Quadrupole LC–MS instrument (Agilent Technologies) using electrospray ionization. The mass spectrometer was operated in multiple reaction monitoring (MRM) mode with positive ionization monitoring. The precursor–product ion pairs used in MRM mode were as follows: m/z 69.1m/z → 49.1 (d9-TMA) and m/z 113.2 m/z → 69.1 (d9-choline). The capillary voltage was set to 4.0 kV, and the fragmentor voltage was set to 30 V (d9-TMA) and 115 V (d9-choline). The collision energy for the precursor–product ion pairs was set to 29 V (d9-TMA) and 21 V (d9-choline). MS^1 resolution was set to wide and MS^2 resolution to unit. The drying gas temperature was maintained at 250°C, with a flow rate of 11 L/min and a nebulizer pressure of 45 psi. The time filter width used was 0.07 min. The injection volume of all samples was 1 μL. Samples were injected onto InfinityLab Poroshell 120 (Agilent) HILIC columns (2.7 μm, 100 mm × 2.1 mm, 100 Å) preceded by InfinityLab Poroshell 120 HILIC guard columns (2.1 mm, 1.9µm UHPLC guard). The LC conditions on the binary pump were as follows: a gradient of 5–35% A increasing over 1.95 min (1.2 mL/min), a gradient of 35–5% A decreasing over 0.05 min (1.6 mL/min), and held at 5% A for 0.5 min (2 mL/min). […] Solvent A was 10 mM ammonium formate with 0.1% formic acid, and solvent B was acetonitrile with 0.1% formic acid. Data analysis was performed with Mass Hunter Workstation Data Acquisition and Qualitative Analysis software (Agilent Technologies).

[2] = test system: Bacteroides ovatus ATCC 8483; assay: MIC in MEGA medium; type: cell-based; details: anaerobic, 37°C, 24 h, up to 200 µM; read-out: MIC in MEGA medium, B. ovatus
Description: as §1

[3] = test system: Anaerococcus hydrogenalis DSM 7454; assay: MIC in MEGA medium; type: cell-based; details: anaerobic, 37°C, 24 h, up to 200 µM
Description: as §1

[4] = test system: Eubacterium rectale ATCC 33656; assay: MIC in MEGA medium; type: cell-based; details: anaerobic, 37°C, 24 h, up to 200 µM; read-out: MIC in MEGA medium, E. rectale
Description: as §1

[5] = test system: Bacteroides caccae ATCC 43185; assay: MIC in MEGA medium; type: cell-based; details: anaerobic, 37°C, 24 h, up to 200 µM; read-out: MIC in MEGA medium, B. caccae
Description: as §1

[6] = test system: Collinsella aerofaciens ATCC 25986; assay: MIC in MEGA medium; type: cell-based; details: anaerobic, 37°C, 24 h, up to 200 µM
Description: as §1

[7] = test system: Clostridium sporogenes ATCC 15579; assay: MIC in MEGA medium; type: cell-based; details: anaerobic, 37°C, 24 h, up to 200 µM
Description: as §1

[8] = test system: Proteus mirabilis ATCC 29906; assay: MIC in MEGA medium; type: cell-based; details: anaerobic, 37°C, 24 h, up to 200 µM; read-out: MIC in MEGA medium, P. mirabilis
Description: as §1

[9] = test system: Bacteroides thetaiotaomicron VPI-5482; assay: MIC in MEGA medium; type: cell-based; details: anaerobic, 37°C, 24 h, up to 200 µM; read-out: MIC in MEGA medium, B. thetaiotaomicron
Description: as §1

E. coli MS 200-1 [10] = assay: TMA inhibition in bacterial whole cells (LC–MS/MS of d9-TMA from d9-choline); type: cell-based, Escherichia coli MS 200-1; details: 1 mM d9-choline in PBS, 75 min, 37°C, anaerobic
Description: as §1, §2, §3, §4

E. coli MS 200-1 [11] = assay: MIC in MEGA medium; type: cell-based, Escherichia coli MS 200-1; details: anaerobic, 37°C, 24 h, up to 200 µM
Description: as §1

[12] = test system: panel of commensal bacterial strains; assay: MIC against panel of nine gut commensal bacteria; details: of 9 bacterial strains tested
TMAO production in vivo = test system: TMAO production in vivo; parameters: method as in PMID 30082863; details: cited from earlier work
[13] = test system: Anaerococcus hydrogenalis DSM 7454; assay: TMA inhibition in bacterial whole cells (LC–MS/MS of d9-TMA from d9-choline); type: cell-based; details: 1 mM d9-choline in PBS, 75 min, 37°C, anaerobic
Description: as §1, §2, §3, §4

[14] = test system: Proteus mirabilis ATCC 29906; assay: as above; type: cell-based; details: 1 mM d9-choline in PBS, 90 min, 37°C, anaerobic; read-out: EC50 in whole cells, P. mirabilis (TMA inhibition)
Description: as §1, §2, §3, §4

[15] = test system: choline-metabolizing gut bacteria (E. coli, P. mirabilis, C. sporogenes, A. hydrogenalis); assay: TMA inhibition across the panel of four choline-metabolizing gut bacteria; type: cell-based; details: compared with compound 6
Text: We then used secondary assays to prioritize scaffolds that had broad-spectrum TMA inhibitory activity against additional choline-metabolizing gut bacteria. For this, we used Clostridium sporogenes ATCC 15579, a human gut isolate that is able to efficiently ferment choline in addition to other carbon sources, as well as Anaerococcus hydrogenalis DSM 7454 and Proteus mirabilis ATCC 29906, human gut isolates previously identified to metabolize choline in vitro ([61]). In particular, E. coli MS 200-1 and C. sporogenes ATCC 15579 have been used in gnotobiotic studies to investigate the effects of bacterial choline metabolism on the host and microbiome ([46], [61], [62]). These strains are representative of taxa frequently detected in humans ([63]) and, together with E. coli, are representative of the major phyla and genera in which TMA producers have been detected across human gut isolates ([48]). Importantly, this group of strains included both gram-positive and gram-negative bacteria. Gram-negative bacteria have an additional outer membrane layer and associated efflux pumps ([29]), which typically decreases small molecule permeability compared to gram-positive bacteria. It also included bacteria with cut gene cluster architectures that differ in the number and types of microcompartment proteins encoded and in the size of the CutC enzyme ([48]). We hypothesized that testing the inhibitors against multiple choline-utilizing gut bacteria would increase the likelihood of identifying compounds with broad-spectrum activity.
as §2

choline transporters = test system: choline transporters; parameters: method as in PMID 33271015; details: read-out: IC50 of choline transport in human cells that overexpress choline transporters; cited from earlier work
[16] = test system: Hungatella hathewayi cultures; parameters: method as in PMID 31059309; details: cited from earlier work
[17] = molecular target: T1, purified CutC (choline trimethylamine-lyase) (Oleidesulfovibrio alaskensis, UniProt Q30W70); assay: In vitro CutC activity assay coupled to YADH/NADH (absorbance 340 nm); type: biochemical, Desulfovibrio desulfuricans G20; details: 5 nM CutC, 200 µM choline, 20°C, anaerobic
T1 construct: made in house
T1 sequence (Q30W70 53-846): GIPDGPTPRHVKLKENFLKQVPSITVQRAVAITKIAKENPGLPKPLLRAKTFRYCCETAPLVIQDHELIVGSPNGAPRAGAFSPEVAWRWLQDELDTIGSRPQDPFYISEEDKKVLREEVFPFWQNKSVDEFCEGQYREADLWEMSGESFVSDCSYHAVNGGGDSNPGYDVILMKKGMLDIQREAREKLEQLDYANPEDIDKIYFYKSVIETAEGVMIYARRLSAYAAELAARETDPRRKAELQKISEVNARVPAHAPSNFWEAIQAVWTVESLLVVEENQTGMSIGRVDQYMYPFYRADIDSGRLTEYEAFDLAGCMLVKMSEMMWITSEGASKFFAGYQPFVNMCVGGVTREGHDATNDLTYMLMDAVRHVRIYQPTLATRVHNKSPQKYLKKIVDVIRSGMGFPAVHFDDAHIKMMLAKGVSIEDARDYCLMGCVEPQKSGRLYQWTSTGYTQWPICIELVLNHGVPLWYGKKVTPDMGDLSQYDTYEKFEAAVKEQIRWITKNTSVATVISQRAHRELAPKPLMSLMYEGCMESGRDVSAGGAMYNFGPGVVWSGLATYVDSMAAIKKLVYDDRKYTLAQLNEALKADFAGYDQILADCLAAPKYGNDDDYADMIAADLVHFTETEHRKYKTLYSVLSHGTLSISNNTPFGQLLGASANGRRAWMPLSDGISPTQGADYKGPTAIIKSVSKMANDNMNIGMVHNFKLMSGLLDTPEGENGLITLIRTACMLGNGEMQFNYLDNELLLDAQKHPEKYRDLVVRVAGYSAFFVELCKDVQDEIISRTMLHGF
Description: To investigate if our compounds were inhibiting CutC directly, we tested their activity toward the purified enzyme. The activity of CutC was determined using a coupled enzyme assay, where the acetaldehyde product from the cleavage of choline to TMA is reduced to ethanol by yeast alcohol dehydrogenase (YADH) using nicotinamide adenine dinucleotide (NADH) as a cofactor. The consumption of NADH results in a change in absorption at 340 nm, and this rate of change of absorption was used to calculate the initial rates of reaction of CutC in the presence of varying concentrations of inhibitors ([14], [65]).
CutC and CutD enzymes from Desulfovibrio desulfuricans G20 were purified, CutC was activated by incubation with CutD, and the amount of glycyl radical installation was quantified as previously described ([15]). The IC50 of compounds was determined in an in vitro CutC activity assay, where CutC activity is coupled to the NADH-dependent enzymatic reduction of acetaldehyde by YADH ([15]). Briefly, assays were conducted in an anaerobic chamber (MBraun) under N2 atmosphere at 20°C. In 50 mM potassium phosphate buffer (pH 8.0, 50 mM KCl), 40 µM of CutD and 150 µM of sodium dithionite were incubated for 20 min before the addition of 200 µM of SAM and 20 µM of CutC monomer. The mixture was incubated for 1 h to activate the glycyl radical enzyme, after which the activated CutC mixture was diluted […] in 50 mM potassium phosphate buffer (pH 8.0, 50 mM KCl). A master mix containing 200 µM NADH, 0.4 µM YADH (Sigma), and the diluted CutC mixture (5 nM final concentration in assay) was prepared and aliquoted into 96-well plates (180 µL per well). Ten microliters of inhibitor or DMSO vehicle was added, followed by 10 µL of aqueous choline chloride solution (final concentration 200 µM). Absorbance was measured at 340 nm immediately after addition of all assay components, with measurements taken every 20 s for 10 min. Initial rates were calculated from absorbance measurements and fitted to Michaelis–Menten equation using nonlinear regression in GraphPad Prism 10 (v. 10.4.0). Background activity was subtracted using no substrate controls, and initial rates for each inhibitor concentration were normalized to no inhibitor controls. IC50 values were obtained by plotting normalized activity values against the logarithm of inhibitor concentration and fitting to a nonlinear regression model in GraphPad Prism 10 (v. 10.4.0).

Compound	EC50 [1]	MIC [2]	MIC [3]	MIC [4]	MIC [5]	MIC [6]	MIC [7]	MIC [8]	MIC [9]	EC50 (E. coli MS 200-1 [10])	MIC (E. coli MS 200-1 [11])	Bacterial strains with growth inhibited (MIC < 200 µM) [12]	EC50 of inhibition of TMAO production in vivo (TMAO production in vivo)	EC50 [13]	EC50 [14]	Fold reduction of potency across all four choline-metabolizing bacteria [15]	IC50 (choline transporters)	IC50 [16]	IC50 [17]
Cc1ccc(-c2cc(C(=O)NCCCN3CCC(C)CC3)c(C)n2Cc2ccccc2)cc1C [Compound 19]	4 µM	25 µM (≈ 11.4 µg/mL)	25 µM (≈ 11.4 µg/mL)	25 µM (≈ 11.4 µg/mL)	> 200 µM	6.25 µM (≈ 2.86 µg/mL)	> 200 µM	> 200 µM	50 µM (≈ 22.9 µg/mL)	28 µM	> 200 µM	five out of 9	–	–	–	–	–	–	–
C[N+](C)(CF)CCO [FMC, fluoromethylcholine]	–	–	–	–	–	–	–	–	–	–	–	–	3.4 mg/kg	–	–	–	–	–	–
Cc1ccc(-c2cc(C(=O)NCCCN3CCC(C)CC3)c[nH]2)cc1C [Compound 7]	215 µM	–	–	–	–	–	–	–	–	16 µM	–	–	–	66 µM	80 µM	about 2 fold	–	–	–
C[N+](C)(CCO)CCCCCCOc1cccc(I)c1 [Compound 4]	–	–	–	–	–	–	–	–	–	–	–	–	–	–	–	–	0.044 µM	15 µM	–
Cc1cccc(-c2cc(C(=O)NCCCN3CCC(C)CC3)c(C)[nH]2)c1 [Compound 23]	95 µM	> 200 µM	> 200 µM	> 200 µM	> 200 µM	200 µM (≈ 70.7 µg/mL)	> 200 µM	> 200 µM	> 200 µM	5 µM	> 200 µM	–	–	35 µM	46 µM	–	–	–	64 µM
